Experimental data from US4943566A, “Novel 17-aryl-steroids” (Roussel Uclafi, priority 1987, dated 1990).

Columns and labels:
[1] = target: T1, progesterone receptors of rabbit uterus (Oryctolagus cuniculus, UniProt P06186); experiment: Relative binding affinity (ARL), progesterone receptors of rabbit uterus; conditions: rabbit uterus cytosol, tritiated 17,21-dimethyl-19-nor-Δ4,9-pregnadiene-3,20-dione, cold reference hormone progesterone; for relative affinity of the bond (ARL), Progestogen, 2H: incubation 2H at 0° C.; for relative affinity of the bond (ARL), Progestogen, 24H: incubation 24H at 0° C.
T1 construct: The first test was on the progesterone receptors of rabbit uterus; from tissue; host or cells: uterus of estradiol-treated immature rabbits, 105,000 g supernatant (cytosol)
T1 sequence (P06186 1-930): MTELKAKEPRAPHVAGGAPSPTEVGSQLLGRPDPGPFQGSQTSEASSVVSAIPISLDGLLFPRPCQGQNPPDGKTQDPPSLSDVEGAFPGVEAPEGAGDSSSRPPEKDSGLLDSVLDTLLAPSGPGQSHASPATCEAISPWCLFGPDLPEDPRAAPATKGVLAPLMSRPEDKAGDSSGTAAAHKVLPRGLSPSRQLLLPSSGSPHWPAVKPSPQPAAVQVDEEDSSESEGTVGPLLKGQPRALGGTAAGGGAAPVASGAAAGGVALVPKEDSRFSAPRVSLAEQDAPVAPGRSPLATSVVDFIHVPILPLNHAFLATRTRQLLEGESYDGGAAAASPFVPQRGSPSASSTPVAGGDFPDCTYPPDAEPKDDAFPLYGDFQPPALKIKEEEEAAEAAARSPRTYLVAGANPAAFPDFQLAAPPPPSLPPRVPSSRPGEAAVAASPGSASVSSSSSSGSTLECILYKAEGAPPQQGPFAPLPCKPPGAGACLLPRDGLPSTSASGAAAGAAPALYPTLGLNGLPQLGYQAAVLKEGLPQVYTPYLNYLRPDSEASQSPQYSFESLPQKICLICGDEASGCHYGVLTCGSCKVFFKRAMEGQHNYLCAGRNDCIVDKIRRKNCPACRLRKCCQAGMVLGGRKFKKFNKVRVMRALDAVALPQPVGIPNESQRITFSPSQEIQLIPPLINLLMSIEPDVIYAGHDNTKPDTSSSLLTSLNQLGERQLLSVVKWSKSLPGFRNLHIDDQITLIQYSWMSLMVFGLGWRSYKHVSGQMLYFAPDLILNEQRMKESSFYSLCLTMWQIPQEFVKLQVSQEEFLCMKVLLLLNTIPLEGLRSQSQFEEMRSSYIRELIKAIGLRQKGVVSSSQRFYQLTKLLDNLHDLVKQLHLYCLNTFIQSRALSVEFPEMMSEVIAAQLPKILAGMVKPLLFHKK
Method: The first test was on the progesterone receptors of rabbit uterus in which immature rabbits weighing about 1 kg received a cutaneous application of […] of estradiol and 5 days after treatment, the animals were sacrificed. The […] was removed, weighed and homogenized at 0° C. with a Potter Teflon-glass ina buffered solution. TS (Tris 10 mM, 0.25M Saccharose, HCl, pH 7.4) (1 g of tissue per 50 ml of TS). The homogenate was ultracentrifuged at 105,000 g×90 minutes at 0° C. The surnageant samples were incubated at a time at (t) 0° C. with a constant concentration (T) of tritiated product (R) which is 17,21-dimethyl-19-nor-Δ^4,9 -pregnadiene-3,20-dione in the presence of increasing concentrations from 0 to 2500×10^-9 M or cold R or cold progestenone or cold test compound. The concentration of bound tritiated R was measured for each incubate by absorption technique on dextran carbon.
The relative affinity of the bond (ARL) was calculated in the same for the receptors. One traced the following 2 curves: the percentage of bond tritiated hormone B/T as a logarithmic function of the concentration of the cold reference hormone and B/T as a logarithmic function of the concentration of the cold test compound. Using the equation [formula] B/T max.=% of bound tritiated hormone for one incubation of tritiated hormone at concentration (T)
B/T min.=% of bound tritiated hormone for one incubation of tritiated hormone at a concentration T in the presence of a great excess of cold hormone (2500×10^-9 M).
The intersections of I50 lines and the curves permit an evaluation of the hormone concentration of the cold reference (CH) and the cold test compound (CX) which inhibited by 50% the bounding of tritiated hormone to the receptor. The ARL of the test compound was determined by the equation. [formula] and the following results were obtained.

[2] = test system: mammary Tumoral cells MCF-7; experiment: Anti-proliferative activity against the increase of mammary tumoral cells MCF-7 (ADN by DABA fluorimetry); type: cell-based; conditions: Homo sapiens, MCF7, 144 h; MCF-7 cells, SVF medium, 6 days, ADN content; read-out: CI50 in nM (concentration which inhibits by 50% the increase in the MCF 7 cells)
Method: The cell culture line MCF-7 was maintained in culture in SVF (1) medium at 37° C. in a humid atmosphere containing 5% CO2. The cells at subconfluence were collected by trypsination (0.05% trypsine, 0.02% EDTA) then rinsed by gentle centrifiguation. A sample of the cells in suspension was counted by the Malassez cell. To study the increase, the cells resuspended in SVF medium were innoculated at a rate of 30,000 cells per well in a multiwell plate (24 wells per 2.5 cm^2) 24 hours after the innoculation (Day 0), the test compound was added to the medium in an ethanolic solution (final ethanol concentration is 0.1%) a concentration of 10^-6 M. The control wells received the same concentration of ethanol. The mediums were totally renewed at 48 hours. At the end of the experiment (Day 6), the medium was aspirated and the cells were immediately fixed by 150 μl of methanol after a dose of ADN. The anti-proliferative activity of the products was determined by the capacity to inhibit ADN increase.
ADN is dosed by a fluorimetric method using DABA (3,5-diamino benzoic acid). 150 μl of DABA was added to each well and the plates were incubated for 45 minutes at 56° C. and then 1.5 ml of 1N hydrochloric acid was added. The fluoresence was measured with a fluorimeter (excitement length 400 nM-length of emission wave 500 nM). The amount of ADN per well was evaluated with respect to a standard scale obtained by treating under the same conditions an ADN standard of the calf thymus. The concentration in nM which inhibit by 50% the increase in the MCF 7 cells or CI50 was determined in the same manner with the results of the following Table.
The medium for culture of calf fetal serum (SVF) was prepared as follows: MEM medium (minimal essential medium) to which was added non-essential amino acids (GIBCO), peni-strepto (penicillin 100 U/ml, streptomycine 0.1 mg/ml), 0.1% fungizone, 50 ng/ml of insulin and a 10% final concentration of calf fetal serum free of endrogenic steroids.

relative affinity of the bond (ARL), Progestogen, 2H [1] | relative affinity of the bond (ARL), Progestogen, 24H [1] | IC50 [2] | SMILES
32 | 183 | 500 nM | CN(C)c1ccc([C@H]2C[C@@]3(C)[C@@H](CC[C@@]3(O)c3ccc(N(C)C)cc3)[C@@H]3CCC4=CC(=O)CCC4=C32)cc1 [Example 2, 11β,17α-bis-(4-dimethylamino-phenyl)-Δ^4,9-estradiene-17β-ol-3-one]
51 | 264 | 400 nM | COc1ccc([C@]2(O)CC[C@H]3[C@@H]4CCC5=CC(=O)CCC5=C4[C@@H](c4ccc(N(C)C)cc4)C[C@@]32C)cc1 [Example 4, 11β-(4-dimethylamino-phenyl)-17α-(4-methoxy-phenyl)-Δ^4,9-estradiene-17β-ol-3-one]
